Measured values: ChEMBL document CHEMBL3739265, “Synthesis and biological evaluation of negative allosteric modulators of the Kv11.1(hERG) channel” (Eur J Med Chem, 2015)

Columns and labels:
[1] = target: Kv11.1 (KCNH2, hERG) potassium channel (Homo sapiens, UniProt Q12809); experiment: Allosteric modulation of [3H]-dofetilide binding at Kv11.1 channel (unknown origin) expressed in HEK293 cells at 10 uM after 6 mins by scintillation spectrometer analysis relative to control; format: cell-based; conditions: HEK293 cells expressing Kv11.1 channel, probe [3H]-dofetilide, read-out: Activity
[2] = target: T1, Voltage-gated inwardly rectifying potassium channel KCNH2 (Homo sapiens, UniProt Q12809); experiment: Induction of dissociation of [3H]-dofetilide from Kv11.1 channel (unknown origin) assessed as dissociation rate expressed in HEK293 cells at 50 uM after 1 hr relative to control; format: cell-based; conditions: hek293, 1 h
[3] = target: T1, Voltage-gated inwardly rectifying potassium channel KCNH2; experiment: Induction of dissociation of [3H]-dofetilide from Kv11.1 channel (unknown origin) assessed as dissociation rate expressed in HEK293 cells after 1 hr; format: cell-based
[4] = target: T1, Voltage-gated inwardly rectifying potassium channel KCNH2; experiment: Allosteric modulation of Kv11.1 channel (unknown origin) expressed in HEK293 cells assessed as shift of inhibition constant for astemizole-induced displacement of [3H]-dofetilide binding at 10 uM after 1 hr relative to control; format: cell-based; conditions: hek293, 1 h
[5] = target: T1, Voltage-gated inwardly rectifying potassium channel KCNH2; experiment: Allosteric modulation of Kv11.1 channel (unknown origin) expressed in HEK293 cells assessed as shift of inhibition constant for dofetilide-induced displacement of [3H]-dofetilide binding at 10 uM after 1 hr relative to control; format: cell-based; conditions: hek293, 1 h
[6] = target: T1, Voltage-gated inwardly rectifying potassium channel KCNH2; experiment: Binding affinity to Kv11.1 channel (unknown origin)

Kv11.1 (KCNH2, hERG) potassium channel, sequence (Q12809 whole entry): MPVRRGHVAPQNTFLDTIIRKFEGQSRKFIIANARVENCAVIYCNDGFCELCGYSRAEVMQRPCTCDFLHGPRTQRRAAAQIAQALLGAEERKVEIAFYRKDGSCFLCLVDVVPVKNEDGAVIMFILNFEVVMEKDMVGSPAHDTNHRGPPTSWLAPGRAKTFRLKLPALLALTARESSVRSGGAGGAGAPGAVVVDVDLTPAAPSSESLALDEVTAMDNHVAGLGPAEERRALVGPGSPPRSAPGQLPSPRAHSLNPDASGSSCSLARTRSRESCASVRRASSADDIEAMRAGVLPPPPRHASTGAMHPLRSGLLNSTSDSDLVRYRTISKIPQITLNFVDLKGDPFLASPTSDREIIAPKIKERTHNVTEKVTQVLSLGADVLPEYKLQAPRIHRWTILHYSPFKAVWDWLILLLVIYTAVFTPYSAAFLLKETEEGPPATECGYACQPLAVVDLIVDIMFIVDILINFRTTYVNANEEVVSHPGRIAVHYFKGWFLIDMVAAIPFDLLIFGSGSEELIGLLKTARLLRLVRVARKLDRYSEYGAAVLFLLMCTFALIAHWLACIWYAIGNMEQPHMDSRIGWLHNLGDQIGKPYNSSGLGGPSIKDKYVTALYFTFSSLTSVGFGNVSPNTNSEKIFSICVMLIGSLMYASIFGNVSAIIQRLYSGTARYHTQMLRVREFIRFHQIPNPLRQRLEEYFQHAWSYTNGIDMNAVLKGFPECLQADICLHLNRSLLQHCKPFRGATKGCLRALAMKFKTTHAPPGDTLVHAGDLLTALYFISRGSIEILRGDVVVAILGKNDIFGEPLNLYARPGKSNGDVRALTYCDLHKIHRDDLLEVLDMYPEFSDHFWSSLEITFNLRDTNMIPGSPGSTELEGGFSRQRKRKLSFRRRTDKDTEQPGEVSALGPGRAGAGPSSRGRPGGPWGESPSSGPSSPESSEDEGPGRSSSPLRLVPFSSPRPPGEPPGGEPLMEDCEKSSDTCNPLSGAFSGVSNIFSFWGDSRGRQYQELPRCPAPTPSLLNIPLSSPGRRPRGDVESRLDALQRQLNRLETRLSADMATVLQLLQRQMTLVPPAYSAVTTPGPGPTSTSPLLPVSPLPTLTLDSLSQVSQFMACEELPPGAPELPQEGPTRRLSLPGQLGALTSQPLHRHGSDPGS
T1 sequence (Q12809 whole entry): as above

SMILES	activity at 0.1 h, 10 µM [1] [%]	also measured
O=C(COc1ccc2c(c1)-c1ccccc1C2=O)Nc1cccnc1	79	–
O=C(COc1ccc(C(=O)c2ccccc2Br)cc1)Nc1cnc2ccccc2c1	87	–
O=C(COc1ccc(C(=O)c2ccccc2Br)cc1)Nc1ccc(Cl)nn1	92	–
O=C(COc1ccc(C(=O)c2ccccc2Br)cc1)Nc1cccnc1	44	fold change (FC) [2]: 3; EC50 [3]: 12 µM; fold change (FC) [4]: 4.1; fold change (FC) [5]: 2.5
O=C(COc1ccc(C(=O)c2cccc(F)c2)cc1)Nc1cccnc1	47	fold change (FC) [2]: 1.6; fold change (FC) [4]: 1.9; fold change (FC) [5]: 1.9
COc1ccncc1NC(=O)COc1ccc(C(=O)c2ccccc2Br)cc1	105	–
O=C(COc1ccc(C(=O)c2ccccc2)cc1Br)Nc1cccnc1	96	–
O=C(COc1ccc(C(=O)c2ccccc2Br)cc1)Nc1cncnc1	87	–
Cc1ccc(NC(=O)COc2ccc(C(=O)c3ccccc3Br)cc2)cn1	105	–
O=C(COc1ccc(C(=O)c2cccc(Cl)c2)cc1)Nc1cccnc1	43	fold change (FC) [2]: 1.7; fold change (FC) [4]: 2.8; fold change (FC) [5]: 3.3
O=C(COc1ccc(C(=O)c2cccc(F)c2Br)cc1)Nc1cccnc1	85	–
O=C(COc1ccc(C(=O)c2ccccc2Br)cc1)Nc1cnccn1	92	–
O=C(COc1ccc(C(=O)c2cccc(I)c2)cc1)Nc1cccnc1	62	–
O=C(COc1ccc(C(=O)c2ccccc2I)cc1)Nc1cccnc1	72	–
O=C(COc1ccc(C(=O)c2ccccc2Br)cc1)Nc1ccc(Cl)nc1	95	–
Cc1ccc(C(=O)c2ccc(OCC(=O)Nc3cccnc3)cc2)cc1	97	–
O=C(COc1ccc(C(=O)c2ccccc2F)cc1)Nc1cccnc1	85	–
O=C(COc1ccc(C(=O)c2ccccc2Cl)cc1)Nc1cccnc1	71	–
Cc1ccncc1NC(=O)COc1ccc(C(=O)c2ccccc2Br)cc1	108	–
O=C(COc1ccc2ccccc2c1Br)Nc1cccnc1	66	Ki [6]: 0.0048 µM
O=C(COc1ccc(C(=O)c2cc(F)ccc2Br)cc1)Nc1cccnc1	38	fold change (FC) [2]: 4.1; EC50 [3]: 4.6 µM; fold change (FC) [4]: 6.3; fold change (FC) [5]: 4.6
COc1cncc(NC(=O)COc2ccc(C(=O)c3ccccc3Br)cc2)c1	107	–
COc1ccc(NC(=O)COc2ccc(C(=O)c3ccccc3Br)cc2)cn1	124	–
O=C(COc1ccc(C(=O)c2ccccc2)c(Br)c1)Nc1cccnc1	96	–
O=C(COc1ccc(C(=O)c2ccc(F)cc2)cc1)Nc1cccnc1	65	–
O=C(COc1ccc(C(=O)c2cccc(Br)c2)cc1)Nc1cccnc1	57	fold change (FC) [2]: 1.4; fold change (FC) [4]: 1.4; fold change (FC) [5]: 1.4
O=C(COc1ccc(C(=O)c2ccc(Cl)cc2)cc1)Nc1cccnc1	104	–
Cc1cncc(NC(=O)COc2ccc(C(=O)c3ccccc3Br)cc2)c1	121	–
O=C(COc1ccc(C(=O)c2ccccc2)cc1)Nc1cccnc1	78	–
